From patent US12454687B2, “Functional genomics using CRISPR-Cas systems, compositions, methods, knock out libraries and applications thereof” (The Broad Institute, Inc., priority 2012, dated 2025)

Assays:
human EMX1 locus [1] = assay: double nicking SURVEYOR assay, Cas9 nickase with pairs of guide RNAs, HEK293FT cells; format: cell-based; conditions: sgRNA pairs generating 5′ and 3′ overhangs, offset range from −278 to +58 bp
Procedure: Applicants transfected cells using Lipofectamine 2000, and transfected cells were harvested 48 or 72 hours after transfections. Double nicking-induced NHEJ were detected using the SURVEYOR nuclease assay as described previously herein (FIGS. 51, 52 and 53).

human EMX1 locus [2] = assay: Surveyor assay for genome modification, HEK 293 FT cells; format: cell-based; conditions: co-expression with EMX1-targeting chimeric crRNA, n=3
Procedure: Cells were transfected using Lipofectamine 2000 (Life Technologies) following the manufacturer's recommended protocol. For each well of a 24-well plate a total of 800 ng of plasmids were used.
Genomic DNA was extracted using the QuickExtract DNA extraction kit (Epicentre) following the manufacturer's protocol. […] Extracted genomic DNA was immediately processed or stored at −20° C.
The genomic region surrounding a CRISPR target site for each gene was PCR amplified, and products were purified using QiaQuick Spin Column (Qiagen) following manufacturer's protocol. A total of 400 ng of the purified PCR products were mixed with 2 μl 10× Taq polymerase PCR buffer (Enzymatics) and ultrapure water to a final volume of 20 μl, and subjected to a re-annealing process to enable heteroduplex formation: 95° C. for 10 min, 95° C. to 85° C. ramping at −2° C./s, 85° C. to 25° C. at −0.25° C./s, and 25° C. hold for 1 minute. After re-annealing, products were treated with Surveyor nuclease and Surveyor enhancer S (Transgenomics) following the manufacturer's recommended protocol, and analyzed on 4-20% Novex TBE poly-acrylamide gels (Life Technologies). Gels were stained with SYBR Gold DNA stain (Life Technologies) for 30 minutes and imaged with a Gel Doc gel imaging system (Bio-rad). Quantification was based on relative band intensities, as a measure of the fraction of cleaved DNA.

EMX1 locus = assay: HDR with ssODNs and targeting vector in HUES9 cells; format: cell-based, human
Source text: (a) Either a targeting plasmid or an ssODN (sense or antisense) with homology arms can be used to edit the sequence at a target genomic locus cleaved by Cas9 (red triangle). To assay the efficiency of HDR, we introduced a HindIII site into the target locus, which was PCR-amplified with primers that anneal outside of the region of homology. […] (b) ssODNs, oriented in either the sense or the antisense (s or a) direction relative to the locus of interest, can be used in combination with Cas9 to achieve efficient HDR-mediated editing at the target locus. A minimal homology region of 40 bp, and preferably 90 bp, is recommended on either side of the modification. […] Each ssODN contains homology arms of 90 bp flanking a 12-bp insertion of two restriction sites.
114| In the HDR example, a HindIII restriction site is inserted into the EMX1 gene. These are detected by a restriction digest of the PCR amplicon:
iv. The cleavage products are imaged and quantified as described above in the SURVEYOR assay section. HDR efficiency is estimated by the formula: (b+c)/(a+b+c), where a is the integrated intensity for the undigested HDR PCR product, and b and c are the integrated intensities for the HindIII-cut fragments.
CRISPR-Cas may be easily multiplexed to facilitate simultaneous modification of several genes and mediate chromosomal microdeletions at high efficiencies. […]

human EMX1 locus [3] = assay: restriction fragment length polymorphism assay for homologous recombination; format: cell-based; conditions: HEK 293 FT, HindIII digest
Source text: The target genomic region was PCR amplified using primers outside the homology arms of the homologous recombination (HR) template. PCR products were separated on a 1% agarose gel and extracted with MinElute GelExtraction Kit (Qiagen). Purified products were digested with HindIII (Fermentas) and analyzed on a 6% Novex TBE poly-acrylamide gel (Life Technologies).

human EMX1 locus [4] = assay: sequencing of amplicons containing the target locus; format: cell-based; conditions: sequencing of 327 amplicons
[5] = tested on: Exon 51 of the dystrophin gene; conditions: across 48 weeks, cited from earlier work

H840A: SpCas9 with mutation H840A
indel formation with sgRNA pairs (human EMX1 locus [1]): unable to observe indel formation

SpCas9n: SpCas9 with aspartate-to-alanine substitution (D10A) in the RuvC I catalytic domain, a nickase
indels at the EMX1 protospacer target (human EMX1 locus [2]): does not generate indels | HDR detection (EMX1 locus): not been able to detect HDR | integration of the HR template into the EMX1 locus (human EMX1 locus [3]): catalyzed integration of the HR template | indels detected by sequencing (human EMX1 locus [4]): did not detect any indels

eteplirsen
functional benefit [5]: significant functional benefit | dystrophin positive fibers ([5]; average, compared to baseline): 47%
